Measurements as given in BindingDB's records for doi:10.1021/jm070014g (2007).

Target: T1, Protein Tat (Human immunodeficiency virus type 1 group M subtype B (isolate HXB2), UniProt P04608)
T1 sequence (P04608 whole entry): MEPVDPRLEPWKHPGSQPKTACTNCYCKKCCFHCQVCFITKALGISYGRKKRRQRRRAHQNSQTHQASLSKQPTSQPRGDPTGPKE
Experiment: Inhibition of Tat-mediated transcription of viral promoter in 293 T cells transfected with HIV1 tat by luciferase reporter gene assay

Row | EC50 [µM] | Structure (SMILES)
1 | 10 | Cc1ccc(NCCCN)c([N+](=O)[O-])c1
2 | 1 | CC(Cl)c1ccc(NCCCN)c([N+](=O)[O-])c1 (configuration not stated)
